# Source: patent US20230085307A1, “PYRIDAZINONE COMPOUND AND HERBICIDE” (NISSAN CHEMICAL CORPORATION, priority 2019, published 2023)
# Tests used:
# late watergrass = test: Test Example 1: herbicidal activity, application before weed generation under submerged conditions (Table 16, symbol A); format: in vivo, late watergrass (Echinochloa oryzicola); settings: 320 g/ha applied herbicide
# Method in brief: (§1)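 Alluvial soil was flooded to 4 cm depth, weed seeds were sown mixed and 2.5-leaf rice seedlings were transplanted. On sowing day, the compound's emulsion, diluted in water to a set dose, was applied to the water surface. Plants grew at 25–30 °C and were scored 0–5 after three weeks.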
# Japanese bulrush = test: Test Example 1: herbicidal activity, application before weed generation under submerged conditions (Table 16, symbol B); format: in vivo, Japanese bulrush (Schoenoplectus juncoides); settings: 320 g/ha applied herbicide
# Method in brief: as §1
# oval-leafed pondweed = test: Test Example 1: herbicidal activity, application before weed generation under submerged conditions (Table 16, symbol C); format: in vivo, oval-leafed pondweed (Monochoria vaginalis); settings: 320 g/ha applied herbicide
# Method in brief: as §1
# barnyard grass [1] = test: Test Example 3: herbicidal effect by foliage application, Wagner pot (Table 18, symbol H); format: in vivo, barnyard grass (Echinochloa crus-galli); settings: amount of applied herbicide 320 g/ha
# Method in brief: (§2)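 Plants were sown in alluvial soil held under 0.1–0.5 cm standing water and grown 14 days in a greenhouse at 25–30 °C. An emulsifiable formulation, water-diluted to the set dose, was then sprayed onto the foliage, and effects were scored three weeks later using previously defined criteria.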
# Chinese sprangletop = test: Test Example 3: herbicidal effect by foliage application, Wagner pot (Table 18, symbol D); format: in vivo, chinese sprangletop (Leptochloa chinensis); settings: amount of applied herbicide 320 g/ha
# Method in brief: as §2
# rice flat sedge = test: Test Example 3: herbicidal effect by foliage application, Wagner pot (Table 18, symbol E); format: in vivo, rice flat sedge (Cyperus iria); settings: amount of applied herbicide 320 g/ha
# Method in brief: as §2
# southern crabgrass [2] = test: Test Example 4: herbicidal effect by soil treatment (Table 19, symbol F); format: in vivo, southern crabgrass (Digitaria ciliaris); settings: amount of applied herbicide 320 g/ha
# Method in brief: (§3)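 Emulsion of test compound, water-diluted to predetermined amount, sprayed on soil after sowing (seed depth ~1.5 cm, sterilized diluvial soil). Greenhouse, 25–30° C. Effect graded at three weeks post-spray.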
# green foxtail [3] = test: Test Example 4: herbicidal effect by soil treatment (Table 19, symbol G); format: in vivo, green foxtail (Setaria viridis); settings: amount of applied herbicide 320 g/ha
# Method in brief: as §3
# barnyard grass [4] = test: Test Example 4: herbicidal effect by soil treatment (Table 19, symbol H); format: in vivo, barnyard grass (Echinochloa crus-galli); settings: amount of applied herbicide 320 g/ha
# Method in brief: as §3
# wild oat [5] = test: Test Example 4: herbicidal effect by soil treatment (Table 19, symbol I); format: in vivo, wild oat (Avena fatua); settings: amount of applied herbicide 320 g/ha
# Method in brief: as §3
# blackgrass [6] = test: Test Example 4: herbicidal effect by soil treatment (Table 19, symbol J); format: in vivo, blackgrass (Alopecurus myosuroides); settings: amount of applied herbicide 320 g/ha
# Method in brief: as §3
# Italian ryegrass [7] = test: Test Example 4: herbicidal effect by soil treatment (Table 19, symbol K); format: in vivo, Italian ryegrass (Lolium multiflorum); settings: amount of applied herbicide 320 g/ha
# Method in brief: as §3
# windgrass [8] = test: Test Example 4: herbicidal effect by soil treatment (Table 19, symbol L); format: in vivo, windgrass (Apera spica-venti); settings: amount of applied herbicide 320 g/ha
# Method in brief: as §3
# velvetleaf [9] = test: Test Example 4: herbicidal effect by soil treatment (Table 19, symbol M); format: in vivo, velvetleaf (Abutilon theophrasti); settings: amount of applied herbicide 320 g/ha
# Method in brief: as §3
# redroot pigweed [10] = test: Test Example 4: herbicidal effect by soil treatment (Table 19, symbol N); format: in vivo, redroot pigweed (Amaranthus retroflexus); settings: amount of applied herbicide 320 g/ha
# Method in brief: as §3
# lambsquarters [11] = test: Test Example 4: herbicidal effect by soil treatment (Table 19, symbol O); format: in vivo, lambsquarters (Chenopodium album); settings: amount of applied herbicide 320 g/ha
# Method in brief: as §3
# chickweed [12] = test: Test Example 4: herbicidal effect by soil treatment (Table 19, symbol P); format: in vivo, common chickweed (Stellaria media); settings: amount of applied herbicide 320 g/ha
# Method in brief: as §3
# persian speedwell [13] = test: Test Example 4: herbicidal effect by soil treatment (Table 19, symbol R); format: in vivo, Persian speedwell (Veronica persica); settings: amount of applied herbicide 320 g/ha
# Method in brief: as §3
# southern crabgrass [14] = test: Test Example 5: herbicidal effect by foliage application, plastic box (Table 20, symbol F); format: in vivo, southern crabgrass (Digitaria ciliaris); settings: foliage application, AAH 320 g/ha, evaluated three weeks after application
# Method in brief: (§4)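 Post-emergence foliar test in sterilized diluvial soil. Compound applied as water-diluted emulsion at a predetermined rate to 14-day-old plants; evaluation at three weeks.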
# green foxtail [15] = test: Test Example 5: herbicidal effect by foliage application, plastic box (Table 20, symbol G); format: in vivo, green foxtail (Setaria viridis); settings: foliage application, AAH 320 g/ha, evaluated three weeks after application
# Method in brief: as §4
# barnyard grass [16] = test: Test Example 5: herbicidal effect by foliage application, plastic box (Table 20, symbol H); format: in vivo, barnyard grass (Echinochloa crus-galli); settings: foliage application, AAH 320 g/ha, evaluated three weeks after application
# Method in brief: as §4
# wild oat [17] = test: Test Example 5: herbicidal effect by foliage application, plastic box (Table 20, symbol I); format: in vivo, wild oat (Avena fatua); settings: foliage application, AAH 320 g/ha, evaluated three weeks after application
# Method in brief: as §4
# blackgrass [18] = test: Test Example 5: herbicidal effect by foliage application, plastic box (Table 20, symbol J); format: in vivo, blackgrass (Alopecurus myosuroides); settings: foliage application, AAH 320 g/ha, evaluated three weeks after application
# Method in brief: as §4
# Italian ryegrass [19] = test: Test Example 5: herbicidal effect by foliage application, plastic box (Table 20, symbol K); format: in vivo, Italian ryegrass (Lolium multiflorum); settings: foliage application, AAH 320 g/ha, evaluated three weeks after application
# Method in brief: as §4
# windgrass [20] = test: Test Example 5: herbicidal effect by foliage application, plastic box (Table 20, symbol L); format: in vivo, windgrass (Apera spica-venti); settings: foliage application, AAH 320 g/ha, evaluated three weeks after application
# Method in brief: as §4
# velvetleaf [21] = test: Test Example 5: herbicidal effect by foliage application, plastic box (Table 20, symbol M); format: in vivo, velvetleaf (Abutilon theophrasti); settings: foliage application, AAH 320 g/ha, evaluated three weeks after application
# Method in brief: as §4
# redroot pigweed [22] = test: Test Example 5: herbicidal effect by foliage application, plastic box (Table 20, symbol N); format: in vivo, redroot pigweed (Amaranthus retroflexus); settings: foliage application, AAH 320 g/ha, evaluated three weeks after application
# Method in brief: as §4
# lambsquarters [23] = test: Test Example 5: herbicidal effect by foliage application, plastic box (Table 20, symbol O); format: in vivo, lambsquarters (Chenopodium album); settings: foliage application, AAH 320 g/ha, evaluated three weeks after application
# Method in brief: as §4
# chickweed [24] = test: Test Example 5: herbicidal effect by foliage application, plastic box (Table 20, symbol P); format: in vivo, common chickweed (Stellaria media); settings: foliage application, AAH 320 g/ha, evaluated three weeks after application
# Method in brief: as §4
# persian speedwell [25] = test: Test Example 5: herbicidal effect by foliage application, plastic box (Table 20, symbol R); format: in vivo, Persian speedwell (Veronica persica); settings: foliage application, AAH 320 g/ha, evaluated three weeks after application
# Method in brief: as §4
SMILES,Herbicidal effect on A: late watergrass (grade 0-5) (late watergrass),Herbicidal effect on B: Japanese bulrush (grade 0-5) (Japanese bulrush),Herbicidal effect on C: oval-leafed pondweed (grade 0-5) (oval-leafed pondweed),herbicidal effect on H: barnyard grass (barnyard grass [1]),herbicidal effect on D: Chinese sprangletop (Chinese sprangletop),herbicidal effect on E: rice flat sedge (rice flat sedge),herbicidal effect on F: southern crabgrass (southern crabgrass [2]),herbicidal effect on G: green foxtail (green foxtail [3]),herbicidal effect on H: barnyard grass (barnyard grass [4]),herbicidal effect on I: wild oat (wild oat [5]),herbicidal effect on J: blackgrass (blackgrass [6]),herbicidal effect on K: Italian ryegrass (Italian ryegrass [7]),herbicidal effect on L: windgrass (windgrass [8]),herbicidal effect on M: velvetleaf (velvetleaf [9]),herbicidal effect on N: redroot pigweed (redroot pigweed [10]),herbicidal effect on O: lambsquarters (lambsquarters [11]),herbicidal effect on P: chickweed (chickweed [12]),herbicidal effect on R: persian speedwell (persian speedwell [13]),"F: southern crabgrass, herbicidal effect (criteria 0-5) (southern crabgrass [14])","G: green foxtail, herbicidal effect (criteria 0-5) (green foxtail [15])",also measured
Cc1nn(C)c(=O)c(-c2c(-c3ccc(CSC(C)C)cc3)sc3ccc(F)cc23)c1O [2-321],3 (Herbicidal rate of 40% or more and less than 70%),3 (Herbicidal rate of 40% or more and less than 70%),0 (Herbicidal rate of 5% or less (almost no effect)),5 (Herbicidal rate of 90% or more (almost completely withered)),3 (Herbicidal rate of 40% or more and less than 70%),5 (Herbicidal rate of 90% or more (almost completely withered)),3 (Herbicidal rate of 40% or more and less than 70%),4 (Herbicidal rate of 70% or more and less than 90%),3 (Herbicidal rate of 40% or more and less than 70%),0 (Herbicidal rate of 5% or less (almost no effect)),0 (Herbicidal rate of 5% or less (almost no effect)),0 (Herbicidal rate of 5% or less (almost no effect)),0 (Herbicidal rate of 5% or less (almost no effect)),1 (Herbicidal rate of 5% or more and less than 20%),4 (Herbicidal rate of 70% or more and less than 90%),3 (Herbicidal rate of 40% or more and less than 70%),0 (Herbicidal rate of 5% or less (almost no effect)),5 (Herbicidal rate of 90% or more (almost completely withered)),5 (Herbicidal rate of 90% or more (almost completely withered)),5 (Herbicidal rate of 90% or more (almost completely withered)),"H: barnyard grass, herbicidal effect (criteria 0-5) (barnyard grass [16]): 4 (Herbicidal rate of 70% or more and less than 90%); I: wild oat, herbicidal effect (criteria 0-5) (wild oat [17]): 3 (Herbicidal rate of 40% or more and less than 70%); J: blackgrass, herbicidal effect (criteria 0-5) (blackgrass [18]): 4 (Herbicidal rate of 70% or more and less than 90%); K: Italian ryegrass, herbicidal effect (criteria 0-5) (Italian ryegrass [19]): 4 (Herbicidal rate of 70% or more and less than 90%); L: windgrass, herbicidal effect (criteria 0-5) (windgrass [20]): 5 (Herbicidal rate of 90% or more (almost completely withered)); M: velvetleaf, herbicidal effect (criteria 0-5) (velvetleaf [21]): 5 (Herbicidal rate of 90% or more (almost completely withered)); N: redroot pigweed, herbicidal effect (criteria 0-5) (redroot pigweed [22]): 5 (Herbicidal rate of 90% or more (almost completely withered)); O: lambsquarters, herbicidal effect (criteria 0-5) (lambsquarters [23]): 5 (Herbicidal rate of 90% or more (almost completely withered)); P: chickweed, herbicidal effect (criteria 0-5) (chickweed [24]): 5 (Herbicidal rate of 90% or more (almost completely withered)); R: persian speedwell, herbicidal effect (criteria 0-5) (persian speedwell [25]): 5 (Herbicidal rate of 90% or more (almost completely withered))"
Cc1nn(C)c(=O)c(-c2c(-c3ccc(F)cc3F)sc3ccc(F)cc23)c1O [2-342],2 (Herbicidal rate of 20% or more and less than 40%),3 (Herbicidal rate of 40% or more and less than 70%),0 (Herbicidal rate of 5% or less (almost no effect)),5 (Herbicidal rate of 90% or more (almost completely withered)),5 (Herbicidal rate of 90% or more (almost completely withered)),5 (Herbicidal rate of 90% or more (almost completely withered)),3 (Herbicidal rate of 40% or more and less than 70%),4 (Herbicidal rate of 70% or more and less than 90%),4 (Herbicidal rate of 70% or more and less than 90%),0 (Herbicidal rate of 5% or less (almost no effect)),3 (Herbicidal rate of 40% or more and less than 70%),5 (Herbicidal rate of 90% or more (almost completely withered)),3 (Herbicidal rate of 40% or more and less than 70%),3 (Herbicidal rate of 40% or more and less than 70%),4 (Herbicidal rate of 70% or more and less than 90%),4 (Herbicidal rate of 70% or more and less than 90%),3 (Herbicidal rate of 40% or more and less than 70%),3 (Herbicidal rate of 40% or more and less than 70%),5 (Herbicidal rate of 90% or more (almost completely withered)),5 (Herbicidal rate of 90% or more (almost completely withered)),"H: barnyard grass, herbicidal effect (criteria 0-5) (barnyard grass [16]): 5 (Herbicidal rate of 90% or more (almost completely withered)); I: wild oat, herbicidal effect (criteria 0-5) (wild oat [17]): 4 (Herbicidal rate of 70% or more and less than 90%); J: blackgrass, herbicidal effect (criteria 0-5) (blackgrass [18]): 4 (Herbicidal rate of 70% or more and less than 90%); K: Italian ryegrass, herbicidal effect (criteria 0-5) (Italian ryegrass [19]): 5 (Herbicidal rate of 90% or more (almost completely withered)); L: windgrass, herbicidal effect (criteria 0-5) (windgrass [20]): 5 (Herbicidal rate of 90% or more (almost completely withered)); M: velvetleaf, herbicidal effect (criteria 0-5) (velvetleaf [21]): 5 (Herbicidal rate of 90% or more (almost completely withered)); N: redroot pigweed, herbicidal effect (criteria 0-5) (redroot pigweed [22]): 5 (Herbicidal rate of 90% or more (almost completely withered)); O: lambsquarters, herbicidal effect (criteria 0-5) (lambsquarters [23]): 5 (Herbicidal rate of 90% or more (almost completely withered)); P: chickweed, herbicidal effect (criteria 0-5) (chickweed [24]): 5 (Herbicidal rate of 90% or more (almost completely withered)); R: persian speedwell, herbicidal effect (criteria 0-5) (persian speedwell [25]): 5 (Herbicidal rate of 90% or more (almost completely withered))"
